Read-outs that look alike come from different tables or passages of the source.
Molecular target: T1, 5-HT transporter (Rattus norvegicus, UniProt P31652)
T1 construct: from tissue; host or cells: rat brain (medulla and pons), synaptosomes, P2 fraction
Experiment: 5-HT uptake inhibition, synaptosomes from rat brain (medulla and pons)
Assay type: biochemical
Text: b) Method for Determining Noradrenalin and 5-HT Uptake Inhibition:
Synaptosomes from rat brain regions are freshly isolated for in vitro studies, as described in the publication “The isolation of nerve endings from brain” by E. G. Gray and V. P. Whittaker, J. Anatomy 96, pages 79-88, 1962. The corresponding literature description is hereby introduced as a reference and is deemed to be part of the disclosure.
The tissue (hypothalamus for the determination of noradrenalin uptake inhibition and medulla and pons for the determination of 5-HT uptake inhibition) is homogenised in ice-cooled 0.32 M sucrose (100 mg of tissue/1 mL) in a glass homogeniser with Teflon pestle using five complete up and down strokes at 840 revolutions/minute.
The homogenate is centrifuged at 4° C. for 10 minutes at 1000 g. After subsequent centrifugation at 17000 g for 55 minutes, the synaptosomes (P2 fraction) are obtained, which are resuspended in 0.32 M […] (0.5 mL/100 mg of original weight).
The particular uptake is measured in a 96-well microtitre plate. The volume is 250 μL and the incubation proceeds at room temperature (approx. 20-25° C.) under an O2 atmosphere.
The incubation time is 7.5 minutes for [^3H]-NA and 5 minutes for [^3H]-5-HT. The 96 samples are then filtered through a Unifilter GF/B® microtitre plate (Packard) and washed with 200 mL of incubated buffer using a “Brabdel MPXRI-96T Cell-Harvester”. The Unifilter GF/B plate is dried for 1 hour at 55° C. The plate is then sealed with a Back Seal® (Packard) and 35 μL of scintillation fluid are added per well (Ultima Gold®, Packard). After sealing with a top Seal® (Packard) and establishing an equilibrium (around 5 hours), radioactivity is determined in a “Trilux 1450 Microbeta” (Wallac).
The quantity of protein used in the above determination corresponds to the values known from the literature, as for example described in “Protein measurement with the folin phenol reagent”, Lowry et al., J. Biol. Chem., 193, 265-275, 1951.
A detailed description of the method may additionally be found in the literature, for example in M. Ch. Frink, H.-H. Hennies, W. Engelberger, M. Haurand and B. Wilffert (1996) Arzneim.-Forsch./Drug Res. 46 (III), 11, 1029-1036.
The following characteristics were determined for the NA or 5-HT transporter: […]

T1 sequence (P31652 whole entry): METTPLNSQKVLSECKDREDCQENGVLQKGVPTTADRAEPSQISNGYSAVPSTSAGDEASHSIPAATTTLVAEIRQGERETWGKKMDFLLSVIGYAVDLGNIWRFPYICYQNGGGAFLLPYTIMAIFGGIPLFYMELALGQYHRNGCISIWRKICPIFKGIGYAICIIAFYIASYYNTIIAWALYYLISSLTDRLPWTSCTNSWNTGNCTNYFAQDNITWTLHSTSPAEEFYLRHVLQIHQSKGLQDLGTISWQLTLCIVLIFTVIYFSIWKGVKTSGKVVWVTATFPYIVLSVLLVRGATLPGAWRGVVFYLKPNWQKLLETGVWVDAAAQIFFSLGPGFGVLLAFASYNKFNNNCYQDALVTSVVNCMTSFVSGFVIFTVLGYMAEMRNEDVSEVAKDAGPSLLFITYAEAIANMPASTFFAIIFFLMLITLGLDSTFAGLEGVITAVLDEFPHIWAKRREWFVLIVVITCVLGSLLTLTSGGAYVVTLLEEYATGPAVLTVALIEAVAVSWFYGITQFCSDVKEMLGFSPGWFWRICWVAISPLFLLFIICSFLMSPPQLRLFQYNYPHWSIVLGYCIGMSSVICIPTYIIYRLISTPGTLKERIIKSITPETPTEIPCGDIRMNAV

| inhibition at 10 µM [%] | SMILES | other results |
| --- | --- | --- |
| 64 | O=C(NC1CCc2ccccc21)c1noc2c1CN(S(=O)(=O)c1ccccc1)CC2 (stereo not shown) [Example 61, 5-benzenesulfonyl-4,5,6,7-tetrahydro-isoxazolo[4,5-c]pyridine-3-carboxylic acid indan-1-yl amide] |  |
| 67 | COCCCNC(=O)c1noc2c1CN(S(=O)(=O)c1ccc(OC)cc1)CC2 [Example 62, 5-(4-methoxy-benzenesulfonyl)-4,5,6,7-tetrahydro-isoxazolo[4,5-c]pyridine-3-carboxylic acid (3-methoxy-propyl) amide] |  |
| 77 | O=C(NCCN1CCCC1)c1noc2c1CN(C(=O)COCc1ccccc1)CC2 [Example 64, 5-(2-benzyloxy-acetyl)-4,5,6,7-tetrahydro-isoxazolo[4,5-c]pyridine-3-carboxylic acid (2-pyrrolidin-1-yl-ethyl) amide] |  |
| 62 | C=CCCC(=O)N1CCc2onc(C(=O)NCC3CC3)c2C1 [Example 66, 5-Pent-4-enoyl-4,5,6,7-tetrahydro-isoxazolo[4,5-c]pyridine-3-carboxylic acid cyclopropylmethyl amide] |  |
| 73 | CC(C)C(NC(=O)c1noc2c1CN(S(=O)(=O)c1cccc(C(F)(F)F)c1)CC2)C(=O)OC(C)(C)C (stereo not shown) [Example 67, 3-methyl-2-{[5-(3-trifluoromethyl-benzenesulfonyl)-4,5,6,7-tetrahydro-isoxazolo[4,5-c]pyridine-3-carbonyl]-amino}-butanoic acid tert-butyl ester] |  |
| 64 | O=C(NCc1ccc(Cl)cc1Cl)c1noc2c1CN(S(=O)(=O)c1cccc(C(F)(F)F)c1)CC2 [Example 69, 5-(3-trifluoromethyl-benzenesulfonyl)-4,5,6,7-tetrahydro-isoxazolo[4,5-c]pyridine-3-carboxylic acid 2,4-dichloro-benzyl amide] |  |
| 63 | CN(C)S(=O)(=O)N1CCc2onc(C(=O)N(CCC#N)Cc3cccnc3)c2C1 [Example 70, 5-dimethylsulfamoyl-4,5,6,7-tetrahydro-isoxazolo[4,5-c]pyridine-3-carboxylic acid (2-cyano-ethyl)-pyridin-3-ylmethyl-amide] |  |
| 69 | O=C(NCCN1CCCC1)c1noc2c1CN(C(=O)CC1CCCC1)CC2 [Example 71, 5-(2-cyclopentyl-acetyl)-4,5,6,7-tetrahydro-isoxazolo[4,5-c]pyridine-3-carboxylic acid (2-pyrrolidin-1-yl-ethyl) amide] |  |
| 70 | Cc1nn(-c2ccccc2)nc1C(=O)N1CCc2onc(C(=O)NCc3ccc(F)cc3)c2C1 [Example 72, 5-(5-methyl-2-phenyl-2H-[1,2,3]triazole-4-carbonyl)-4,5,6,7-tetrahydro-isoxazolo[4,5-c]pyridine-3-carboxylic acid 4-fluorobenzyl amide] |  |
| 65 | O=C(NCc1cccc(Cl)c1Cl)c1noc2c1CN(S(=O)(=O)c1ccc(OC(F)(F)F)cc1)CC2 [Example 75, 5-(4-trifluoromethoxy-benzenesulfonyl)-4,5,6,7-tetrahydro-isoxazolo[4,5-c]pyridine-3-carboxylic acid 2,3-dichloro-benzyl amide] |  |
| 62 | O=C(NCCN1CCCC1)c1noc2c1CN(C(=O)c1ccc(Cl)nc1)CC2 [Example 77, 5-(6-chloro-pyridine-3-carbonyl)-4,5,6,7-tetrahydro-isoxazolo[4,5-c]pyridine-3-carboxylic acid (2-pyrrolidin-1-yl-ethyl) amide] |  |
| 70 | COC(=O)CCCC(=O)N1CCc2onc(C(=O)NCc3ccc(F)cc3)c2C1 [Example 78, 5-[3-(4-fluoro-benzylcarbamoyl)-6,7-dihydro-4H-isoxazolo[4,5-c]pyridin-5-yl]-5-oxo-pentanoic acid methyl ester] |  |
| 71 | COc1ccc(CC(=O)N2CCc3onc(C(=O)NCc4ccccc4)c3C2)cc1 [Example 79, 5-[2-(4-methoxyphenyl)-acetyl]-4,5,6,7-tetrahydro-isoxazolo[4,5-c]pyridine-3-carboxylic acid benzyl amide] |  |
| 65 | CN(CCCNC(=O)c1noc2c1CN(S(=O)(=O)c1ccc(OC(F)(F)F)cc1)CC2)c1ccccc1 [Example 80, 5-(4-trifluoromethoxy-benzenesulfonyl)-4,5,6,7-tetrahydro-isoxazolo[4,5-c]pyridine-3-carboxylic acid [3-(methylphenyl-amino)-propyl] amide] |  |
| 61 | O=C(c1noc2c1CN(S(=O)(=O)c1cc(Cl)ccc1Cl)CC2)N1CCC(CNC(=O)C(F)(F)F)CC1 [Example 83, N-{1-[5-(2,5-dichloro-benzenesulfonyl)-4,5,6,7-tetrahydro-isoxazolo[4,5-c]pyridine-3-carbonyl]-piperidin-4-ylmethyl}-2,2,2-trifluoroacetamide] |  |

Further lines, the compound ahead of its results:

| SMILES | inhibition at 10 µM [%] | other results |
| --- | --- | --- |
| O=C(NCCc1ccccc1Cl)c1noc2c1CN(S(=O)(=O)c1cc(Cl)ccc1Cl)CC2 [Example 52, 5-(2,5-dichloro-benzenesulfonyl)-4,5,6,7-tetrahydro-isoxazolo[4,5-c]pyridine-3-carboxylic acid [2-(2-chlorophenyl)-ethyl] amide] | 83 |  |
| COc1ccc(S(=O)(=O)N2CCc3onc(C(=O)Nc4ccc(C)cc4)c3C2)cc1 [Example 53, 5-(4-methoxy-benzenesulfonyl)-4,5,6,7-tetrahydro-isoxazolo[4,5-c]pyridine-3-carboxylic acid p-tolyl amide] | 89 |  |
| O=C(NCc1ccc(F)cc1)c1noc2c1CN(C(=O)COc1ccccc1)CC2 [Example 54, 5-(2-phenoxy-acetyl)-4,5,6,7-tetrahydro-isoxazolo[4,5-c]pyridine-3-carboxylic acid 4-fluorobenzyl amide] | 84 |  |
| COc1ccc(S(=O)(=O)N2CCc3onc(C(=O)N4CCN(C(C)=O)CC4)c3C2)cc1 [Example 55, 1-{4-[5-(4-methoxy-benzenesulfonyl)-4,5,6,7-tetrahydro-isoxazolo[4,5-c]pyridine-3-carbonyl]-piperazin-1-yl}-ethanone] | 68 |  |
| Cc1ccc(S(=O)(=O)N2CCc3onc(C(=O)NCc4ccc(S(N)(=O)=O)cc4)c3C2)cc1 [Example 56, 5-(toluene-4-sulfonyl)-4,5,6,7-tetrahydro-isoxazolo[4,5-c]pyridine-3-carboxylic acid 4-sulfamoyl-benzyl amide] |  | 5-HT uptake (rat), 10 μM, % inhibition (10 µM): 96% |
| O=C(NCCN1CCOCC1)c1noc2c1CN(S(=O)(=O)c1cccs1)CC2 [Example 57, 5-(thiophene-2-sulfonyl)-4,5,6,7-tetrahydro-isoxazolo[4,5-c]pyridine-3-carboxylic acid (2-morpholin-4-yl-ethyl) amide] | 63 |  |
| COc1ccc(C(=O)N2CCc3onc(C(=O)NCCN(C)C)c3C2)cc1 [Example 58, 5-(4-methoxy-benzoyl)-4,5,6,7-tetrahydro-isoxazolo[4,5-c]pyridine-3-carboxylic acid (2-dimethylamino-ethyl) amide] | 81 |  |
| CC1C(NC(=O)c2noc3c2CN(S(=O)(=O)N(C)C)CC3)CC2CC1C2(C)C (stereo not shown) [Example 60, 5-dimethylsulfamoyl-4,5,6,7-tetrahydro-isoxazolo[4,5-c]pyridine-3-carboxylic acid (2,6,6-trimethyl-bicyclo[3.1.1]hept-3-yl) amide] | 81 |  |
| Cc1ccc(N2CCN(C(=O)c3noc4c3CN(S(=O)(=O)c3cc(Cl)ccc3Cl)CC4)CC2)c(C)c1 [Example 65, [5-(2,5-dichloro-benzenesulfonyl)-4,5,6,7-tetrahydro-isoxazolo[4,5-c]pyridin-3-yl]-[4-(2,4-dimethyl-phenyl)-piperazin-1-yl]-methanone] | 88 |  |
| CCCCC(CC)CNC(=O)c1noc2c1CN(S(=O)(=O)c1cccc(C(F)(F)F)c1)CC2 (stereo not shown) [Example 73] |  | 5-HT uptake (rat), 10 μM, % inhibition: 63% |
| Cc1ccc(C(=O)N2CCc3onc(C(=O)NCCN(C)C)c3C2)c(F)c1F [Example 74] |  | 5-HT uptake (rat), 10 μM, % inhibition: 62% |
| CN(C)S(=O)(=O)N1CCc2onc(C(=O)NCCc3ccc(Cl)cc3)c2C1 [Example 76, 5-dimethylsulfamoyl-4,5,6,7-tetrahydro-isoxazolo[4,5-c]pyridine-3-carboxylic acid [2-(4-chlorophenyl)-ethyl] amide] | 63 |  |
| Cc1ccc(S(=O)(=O)N2CCc3onc(C(=O)N4CCN(CCC5CCCCC5)CC4)c3C2)cc1 [Example 82, [4-(2-cyclohexyl-ethyl)-piperazin-1-yl]-[5-(toluene-4-sulfonyl)-4,5,6,7-tetrahydro-isoxazolo[4,5-c]pyridin-3-yl]-methanone] | 62 |  |

From patent US8048879B2, “Substituted 4,5,6,7-tetrahydro-isoxazolo[4,5-c]pyridine compounds and use thereof for producing medicaments” (Gruenenthal GmbH, priority 2005, dated 2011)
